Measurements taken from patent publication US12661333B2, “Composition for use in treatment of a biofilm in a subject” (TECHNOLOGICAL UNIVERSITY DUBLIN, priority 2020, dated 2026).

Experiments:
[1] = tested on: human periodontal ligament cells (hPDLCs); design: dose or concentration left out as unconfirmed; conditions: exposed for 24 and 48 hours; cited from earlier work
[2] = tested on: Klebsiella pneumoniae NCIMB 418; assay: Biofilm formation in vitro, crystal violet assay; assay type: cell-based; conditions: for reduction of biofilm formation versus control: 24 hours, 37° C., FIG. 1A
Experimental: (§1) FIG. 1: The effect of varying concentrations of DHA on the ability of Klebsiella pneumoniae NCIMB 418 (A) and Enterococcus faecalis ATCC 7080 (B) to form a biofilm in vitro. (10^6 CFU/well was incubated with various concentrations of DHA in a 96 well plate for 24 hours statically at 37° C. Biofilm formation was assessed using the crystal violet assay. Data represents the mean±SD for six independent experiments, carried out in triplicate. One-way ANOVA was performed for statistical analysis. *****P<0.001 compared to both the control (no DHA) and vehicle control (1% DMSO).
FIG. 2: Comparing DNA (16 μM) and Erythromycin (4 μg/ml) individually and adjunct for antibiofilm effects against Klebsiella pneumoniae NCIMB 481 in vitro. 10^6 CFU/well was incubated with each well of a 96 well plate for 24 hours statically at 37° C. Biofilm formation was assessed using the crystal violet assay. Data represents the mean±SD for four independent experiments, carried out in triplicate. One-way ANOVA was performed for statistical analysis. *****P<0.001 compared to both the control (no DHA or Erythromycin), vehicle control (1% DMSO), DHA (16 μM) and Erythromycin (4 μg·mL).
The effect of varying concentrations of DHA on the ability of Klebsiella pneumoniae NCIMB 418 and Enterococcus faecalis ATCC 7080 to form a biofilm in vitro was investigated. 10^6 CFU/well was incubated with various concentrations of DHA in a 96 well plate for 24 hours statically at 37° C. Biofilm formation was assessed using the crystal violet assay. Data represents the mean±SD for six independent experiments, carried out in triplicate. The assay involves seeding cells at 10^^6 CFU/ml in media with DHA. […] The samples is washed again to remove any unbound dye before dissolving the stain in acetic acid and measuring the reading in a spectrophotometer. […]
The effects of DHA (16 μM) and Erythromycin (4 μg/ml) were compared individually and adjunct for antibiofilm effects against Klebsiella pneumoniae NCIMB 481 in vitro. […] Biofilm formation was assessed using the crystal violet assay. […]

[3] = tested on: Enterococcus faecalis ATCC 7080; assay: Biofilm formation in vitro, crystal violet assay; assay type: cell-based; conditions: for reduction of biofilm formation versus control: 24 hours, 37° C., FIG. 1B
Experimental: as §1
The effect of varying concentrations of DHA on the ability of Klebsiella pneumoniae NCIMB 418 and Enterococcus faecalis ATCC 7080 to form a biofilm in vitro was investigated. 10^6 CFU/well was incubated with various concentrations of DHA in a 96 well plate for 24 hours statically at 37° C. Biofilm formation was assessed using the crystal violet assay. Data represents the mean±SD for six independent experiments, carried out in triplicate. The assay involves seeding cells at 10^^6 CFU/ml in media with DHA. Cells were then left for 24 hrs to form biofilms before washing and staining with Crystal Violet. Crystal violet adheres to cells stuck to the sides of the tube/well. The samples is washed again to remove any unbound dye before dissolving the stain in acetic acid and measuring the reading in a spectrophotometer. The colour intensity relates to the level of biofilm present. The more colour the more bacteria in the biofilm. Merritt, J. H., Kadouri, D. E. and O'Toole, G. A. (2005) ‘Growing and Analyzing Static Biofilms’, Current Protocols in Microbiology, Chapter 1(Jul), p. Unit 1B.1.

[4] = tested on: human gingival fibroblasts (HGFs); design: dose or concentration left out as unconfirmed; conditions: exposed for 24 and 48 hours; cited from earlier work
[5] = summary of FIG. 1, concentration not stated

In the case of CC/C=C\C/C=C\C/C=C\C/C=C\C/C=C\C/C=C\CCC(=O)O [DHA, docosahexaenoic acid], the cytotoxic effects [1] is given as “cytotoxic effects”, the “reduction of biofilm formation versus control” value (“reduction” below) ([2]; DHA 6.25 μM) is given as roughly 40% and the “reduction” value ([2]; DHA 100 μM) is given as roughly 65%. For the same compound, the reducing biofilm formation [2, 5] was “approximately 60%”, the “reduction” value ([3]; DHA 6.25 μM) was roughly 20% and the “reduction” value ([3]; DHA 100 μM) was roughly 65%. The reducing biofilm formation [3, 5] was “approximately 60%” and the cytotoxic effects [4] was “cytotoxic effects”.
